Reference: ChEMBL document CHEMBL1909046, “DrugMatrix in vitro pharmacology data”

Experiments:
[1] = target: T1, 5-hydroxytryptamine receptor 1A (Rattus norvegicus, UniProt P19327); type: cell membranes, CHO-K1, Membrane; conditions: cho-k1; also: in other assays of this panel Not Active means under 50% inhibition at 10 µM
T1 sequence (P19327 whole entry): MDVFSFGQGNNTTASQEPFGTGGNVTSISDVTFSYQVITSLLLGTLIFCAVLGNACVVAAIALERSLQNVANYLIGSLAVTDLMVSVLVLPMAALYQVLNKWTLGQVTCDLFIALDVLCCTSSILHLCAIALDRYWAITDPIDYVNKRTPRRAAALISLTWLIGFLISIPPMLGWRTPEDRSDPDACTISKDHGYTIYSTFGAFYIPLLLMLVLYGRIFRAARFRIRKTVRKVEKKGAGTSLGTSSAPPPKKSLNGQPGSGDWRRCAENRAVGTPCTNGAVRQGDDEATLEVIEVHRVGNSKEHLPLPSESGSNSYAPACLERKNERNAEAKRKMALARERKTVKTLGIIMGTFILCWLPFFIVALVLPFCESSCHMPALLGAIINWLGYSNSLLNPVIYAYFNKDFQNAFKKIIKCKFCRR

[2] = target: Prostaglandin G/H synthase 1 (Homo sapiens, UniProt P23219); experiment: biochemical; type: tissue-based, Platelet; conditions: platelet;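 also: inhibition of COX-1 enzyme activity, with arachidonic acid supplied as substrate; in other assays of this panel Not Active means under 50% inhibition at 10 µM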
[3] = target: 5-hydroxytryptamine receptor 2B (Homo sapiens, UniProt P41595); type: cell membranes, CHO-K1, Membrane; conditions: cho-k1; also: in other assays of this panel Not Active means under 50% inhibition at 10 µM
Cytochrome P450 2E1 = Cytochrome P450 2E1 (Homo sapiens, UniProt P05181); conditions: bti-tn-5b1-4; also: in other assays of this panel Not Active means under 50% inhibition at 10 µM
D(3) dopamine receptor = D(3) dopamine receptor (Homo sapiens, UniProt P35462); experiment: DRUGMATRIX: Dopamine D3 radioligand binding (ligand: [3H] Spiperone); type: cell membranes, CHO, Membrane; conditions: cho
[4] = target: T2, Alpha-1A adrenergic receptor (Rattus norvegicus, UniProt P43140); experiment: DRUGMATRIX: Alpha-1A adrenergic receptor radioligand binding (ligand: prazosin); type: cell membranes, Wistar, Submaxillary gland, Membrane; conditions: Not Active = under 50% inhibition at 10 µM
T2 sequence (P43140 whole entry): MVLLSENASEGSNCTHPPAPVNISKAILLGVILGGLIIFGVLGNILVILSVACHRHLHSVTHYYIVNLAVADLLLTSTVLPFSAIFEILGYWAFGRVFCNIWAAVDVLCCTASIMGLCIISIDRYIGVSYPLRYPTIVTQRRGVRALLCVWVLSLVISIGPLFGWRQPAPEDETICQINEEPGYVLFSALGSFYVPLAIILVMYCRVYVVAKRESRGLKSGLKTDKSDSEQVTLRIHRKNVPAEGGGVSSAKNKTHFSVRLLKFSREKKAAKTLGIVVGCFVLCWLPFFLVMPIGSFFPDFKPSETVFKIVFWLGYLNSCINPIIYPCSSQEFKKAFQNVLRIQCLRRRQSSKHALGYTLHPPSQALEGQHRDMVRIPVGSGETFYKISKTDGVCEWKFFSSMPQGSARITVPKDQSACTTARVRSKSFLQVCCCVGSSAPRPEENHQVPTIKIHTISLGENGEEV

[5] = target: C-C chemokine receptor type 2 (Homo sapiens, UniProt P41597); type: cell membranes, CHO-K1, Membrane; conditions: cho-k1; also: in other assays of this panel Not Active means under 50% inhibition at 10 µM
Thromboxane-A synthase = target: T3, Thromboxane-A synthase (Homo sapiens, UniProt P24557); experiment: biochemical; type: tissue-based, Platelet; conditions: platelet
T3 sequence (P24557 whole entry): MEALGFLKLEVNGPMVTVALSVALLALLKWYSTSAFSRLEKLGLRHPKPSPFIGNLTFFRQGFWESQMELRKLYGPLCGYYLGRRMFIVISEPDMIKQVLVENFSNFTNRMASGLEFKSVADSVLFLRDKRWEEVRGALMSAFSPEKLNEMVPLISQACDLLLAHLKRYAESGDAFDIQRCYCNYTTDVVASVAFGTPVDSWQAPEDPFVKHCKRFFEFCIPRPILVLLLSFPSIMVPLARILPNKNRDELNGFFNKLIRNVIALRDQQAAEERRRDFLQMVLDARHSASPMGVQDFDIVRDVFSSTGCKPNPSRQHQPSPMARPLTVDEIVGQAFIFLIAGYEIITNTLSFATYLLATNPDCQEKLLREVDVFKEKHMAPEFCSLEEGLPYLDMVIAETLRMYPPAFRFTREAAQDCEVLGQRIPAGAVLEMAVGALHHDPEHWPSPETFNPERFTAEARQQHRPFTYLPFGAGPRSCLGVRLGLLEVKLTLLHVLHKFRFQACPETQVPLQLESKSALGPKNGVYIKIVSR

[6] = target: Beta-1 adrenergic receptor (Homo sapiens, UniProt P08588); experiment: DRUGMATRIX: Adrenergic beta1 radioligand binding (ligand: [125I] Cyanopindolol); type: cell membranes, CHO-K1, Membrane; conditions: cho-k1; Not Active = under 50% inhibition at 10 µM
[7] = target: T4, Alpha-1D adrenergic receptor (Homo sapiens, UniProt P25100); type: cell membranes, HEK293, Membrane; conditions: hek293; also: in other assays of this panel Not Active means under 50% inhibition at 10 µM
T4 sequence (P25100 whole entry): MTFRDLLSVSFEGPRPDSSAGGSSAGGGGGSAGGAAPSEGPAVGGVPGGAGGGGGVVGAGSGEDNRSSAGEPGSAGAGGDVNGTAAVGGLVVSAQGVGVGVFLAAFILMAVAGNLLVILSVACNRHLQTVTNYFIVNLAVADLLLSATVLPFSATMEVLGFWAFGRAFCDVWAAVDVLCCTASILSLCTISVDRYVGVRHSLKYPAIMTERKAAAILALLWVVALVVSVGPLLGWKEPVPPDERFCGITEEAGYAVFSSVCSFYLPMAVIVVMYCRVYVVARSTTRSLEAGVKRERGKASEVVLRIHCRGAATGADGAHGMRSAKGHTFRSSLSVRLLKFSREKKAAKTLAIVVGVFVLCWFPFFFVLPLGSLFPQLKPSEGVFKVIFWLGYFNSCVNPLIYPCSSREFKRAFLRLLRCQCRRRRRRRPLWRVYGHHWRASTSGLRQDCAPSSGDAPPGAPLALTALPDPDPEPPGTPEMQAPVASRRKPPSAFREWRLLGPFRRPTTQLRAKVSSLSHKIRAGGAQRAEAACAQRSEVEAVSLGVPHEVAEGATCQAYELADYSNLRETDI

[8] = DRUGMATRIX: Serotonin (5-Hydroxytryptamine) 5-HT3 radioligand binding (ligand: [3H] GR-65630); type: cell membranes, Membrane; conditions: hek293; Not Active = under 50% inhibition at 10 µM
[9] = target: Beta-3 adrenergic receptor (Homo sapiens, UniProt P13945); experiment: DRUGMATRIX: Adrenergic beta3 radioligand binding (ligand: [125I] Cyanopindolol); type: cell membranes, HEK293, Membrane; conditions: hek293; Not Active = under 50% inhibition at 10 µM
Melanocortin receptor 3 = Melanocortin receptor 3 (Homo sapiens, UniProt P41968); type: cell membranes, Membrane; conditions: hek293; also: in other assays of this panel Not Active means under 50% inhibition at 10 µM
Chain of Melanocortin receptor 3 (P41968 whole entry): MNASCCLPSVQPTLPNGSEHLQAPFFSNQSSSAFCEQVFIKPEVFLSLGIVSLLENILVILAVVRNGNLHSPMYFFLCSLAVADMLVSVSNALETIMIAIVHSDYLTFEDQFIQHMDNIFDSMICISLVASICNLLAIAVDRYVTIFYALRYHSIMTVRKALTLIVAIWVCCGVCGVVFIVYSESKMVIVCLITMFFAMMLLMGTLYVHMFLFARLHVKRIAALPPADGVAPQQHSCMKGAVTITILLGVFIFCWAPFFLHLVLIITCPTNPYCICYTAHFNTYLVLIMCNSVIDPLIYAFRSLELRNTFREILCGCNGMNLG

Chain of Cytochrome P450 2E1 (P05181 whole entry): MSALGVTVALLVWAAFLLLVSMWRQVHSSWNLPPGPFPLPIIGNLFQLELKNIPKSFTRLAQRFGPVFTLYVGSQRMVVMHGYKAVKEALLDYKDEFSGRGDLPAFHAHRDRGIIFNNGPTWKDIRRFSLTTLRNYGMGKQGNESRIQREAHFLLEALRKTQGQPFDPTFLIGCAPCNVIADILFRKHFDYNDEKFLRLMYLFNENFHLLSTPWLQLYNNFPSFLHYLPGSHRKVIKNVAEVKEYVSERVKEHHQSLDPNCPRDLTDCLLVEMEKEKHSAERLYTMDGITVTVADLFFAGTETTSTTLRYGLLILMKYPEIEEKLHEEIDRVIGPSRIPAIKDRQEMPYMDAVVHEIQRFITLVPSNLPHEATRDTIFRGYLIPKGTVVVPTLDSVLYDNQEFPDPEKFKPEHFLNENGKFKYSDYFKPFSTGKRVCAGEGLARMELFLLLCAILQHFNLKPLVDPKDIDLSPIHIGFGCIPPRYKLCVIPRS
Chain of Beta-1 adrenergic receptor (P08588 whole entry): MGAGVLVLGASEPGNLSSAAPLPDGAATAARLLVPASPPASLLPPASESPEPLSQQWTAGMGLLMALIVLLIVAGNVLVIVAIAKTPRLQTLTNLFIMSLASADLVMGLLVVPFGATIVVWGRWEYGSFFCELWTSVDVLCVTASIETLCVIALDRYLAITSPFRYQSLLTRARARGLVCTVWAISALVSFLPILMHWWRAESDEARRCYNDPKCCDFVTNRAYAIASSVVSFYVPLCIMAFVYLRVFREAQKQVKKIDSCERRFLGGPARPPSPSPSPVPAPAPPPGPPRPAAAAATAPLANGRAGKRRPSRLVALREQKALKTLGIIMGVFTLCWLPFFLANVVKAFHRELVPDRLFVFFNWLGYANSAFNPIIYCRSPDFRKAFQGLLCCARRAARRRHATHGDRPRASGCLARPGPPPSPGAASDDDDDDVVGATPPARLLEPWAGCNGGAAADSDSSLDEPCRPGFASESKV
Chain of C-C chemokine receptor type 2 (P41597 whole entry): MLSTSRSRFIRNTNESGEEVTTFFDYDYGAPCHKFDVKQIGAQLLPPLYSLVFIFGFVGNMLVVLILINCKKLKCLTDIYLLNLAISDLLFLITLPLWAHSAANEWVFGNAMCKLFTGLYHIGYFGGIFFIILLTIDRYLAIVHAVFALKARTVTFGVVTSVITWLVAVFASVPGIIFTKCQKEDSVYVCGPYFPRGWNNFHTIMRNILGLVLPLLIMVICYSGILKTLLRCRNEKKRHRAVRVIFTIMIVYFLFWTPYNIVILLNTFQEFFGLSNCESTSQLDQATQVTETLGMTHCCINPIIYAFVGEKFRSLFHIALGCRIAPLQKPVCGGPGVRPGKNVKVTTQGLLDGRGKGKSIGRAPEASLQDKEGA
Chain of 5-hydroxytryptamine receptor 2B (P41595 whole entry): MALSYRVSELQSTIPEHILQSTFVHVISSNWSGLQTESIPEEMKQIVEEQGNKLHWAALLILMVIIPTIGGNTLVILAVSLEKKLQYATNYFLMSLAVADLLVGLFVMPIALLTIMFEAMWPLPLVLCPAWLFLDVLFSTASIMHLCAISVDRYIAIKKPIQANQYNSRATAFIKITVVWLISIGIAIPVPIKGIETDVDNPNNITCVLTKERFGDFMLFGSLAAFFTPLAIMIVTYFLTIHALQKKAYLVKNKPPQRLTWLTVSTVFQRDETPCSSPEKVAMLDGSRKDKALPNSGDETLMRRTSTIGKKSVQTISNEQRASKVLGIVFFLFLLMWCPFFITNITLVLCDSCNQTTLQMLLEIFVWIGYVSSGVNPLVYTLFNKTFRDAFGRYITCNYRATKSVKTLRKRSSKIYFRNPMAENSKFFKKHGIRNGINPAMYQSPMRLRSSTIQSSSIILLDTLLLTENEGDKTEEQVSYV
Chain of D(3) dopamine receptor (P35462 whole entry): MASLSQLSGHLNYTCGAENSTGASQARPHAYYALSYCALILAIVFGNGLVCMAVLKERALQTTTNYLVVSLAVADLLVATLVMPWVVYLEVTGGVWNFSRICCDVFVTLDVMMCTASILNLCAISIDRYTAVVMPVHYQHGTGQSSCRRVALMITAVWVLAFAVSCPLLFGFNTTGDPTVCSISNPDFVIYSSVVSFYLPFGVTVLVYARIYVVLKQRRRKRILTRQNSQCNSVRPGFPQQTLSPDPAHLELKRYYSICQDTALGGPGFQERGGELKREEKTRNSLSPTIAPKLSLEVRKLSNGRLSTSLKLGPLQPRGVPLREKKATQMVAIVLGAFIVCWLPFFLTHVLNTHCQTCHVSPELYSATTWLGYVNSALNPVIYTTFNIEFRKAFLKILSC
Chain of Beta-3 adrenergic receptor (P13945 whole entry): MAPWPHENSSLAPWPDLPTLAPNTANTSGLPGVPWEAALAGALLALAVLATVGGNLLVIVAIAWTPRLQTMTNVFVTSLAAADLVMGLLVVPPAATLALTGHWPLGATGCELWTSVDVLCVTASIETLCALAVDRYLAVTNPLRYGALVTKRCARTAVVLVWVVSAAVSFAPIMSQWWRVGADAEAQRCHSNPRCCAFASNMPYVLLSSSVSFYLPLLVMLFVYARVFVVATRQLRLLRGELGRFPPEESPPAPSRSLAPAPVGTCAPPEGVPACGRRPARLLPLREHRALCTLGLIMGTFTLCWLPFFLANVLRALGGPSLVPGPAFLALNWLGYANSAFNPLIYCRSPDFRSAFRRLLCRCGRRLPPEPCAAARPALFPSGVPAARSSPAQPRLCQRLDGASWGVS
Chain of Prostaglandin G/H synthase 1 (P23219 whole entry): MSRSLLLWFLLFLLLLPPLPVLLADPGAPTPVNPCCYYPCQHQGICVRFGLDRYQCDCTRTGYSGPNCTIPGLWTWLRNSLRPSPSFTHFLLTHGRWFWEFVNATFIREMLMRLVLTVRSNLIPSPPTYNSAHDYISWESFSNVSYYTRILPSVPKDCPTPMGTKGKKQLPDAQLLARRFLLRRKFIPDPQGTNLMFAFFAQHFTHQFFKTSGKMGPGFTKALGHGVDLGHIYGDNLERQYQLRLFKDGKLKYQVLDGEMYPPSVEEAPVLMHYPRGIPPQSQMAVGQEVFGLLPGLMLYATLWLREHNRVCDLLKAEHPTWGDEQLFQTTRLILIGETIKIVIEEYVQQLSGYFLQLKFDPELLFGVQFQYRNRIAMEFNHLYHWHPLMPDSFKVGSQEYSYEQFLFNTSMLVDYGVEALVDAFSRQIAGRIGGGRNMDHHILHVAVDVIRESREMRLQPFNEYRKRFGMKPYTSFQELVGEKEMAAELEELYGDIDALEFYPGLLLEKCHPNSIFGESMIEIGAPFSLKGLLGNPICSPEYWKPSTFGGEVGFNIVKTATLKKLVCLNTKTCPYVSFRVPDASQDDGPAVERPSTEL

Nc1nc(=O)[nH]cc1F [FLUCYTOSINE]
Not Active: IC50 [1] | IC50 [2] | IC50 [3] | IC50 (Cytochrome P450 2E1) | Ki (Cytochrome P450 2E1) | IC50 (D(3) dopamine receptor) | IC50 [4] | IC50 [5] | IC50 (Thromboxane-A synthase) | IC50 [6] | IC50 [7] | IC50 [8] | Ki [8] | IC50 [9] | IC50 (Melanocortin receptor 3)

O=C1OC2(c3ccc(O)cc3Oc3cc(O)ccc32)c2ccccc21 [FLUORESCEIN]
Not Active: IC50 [1] | IC50 [2] | IC50 [3] | IC50 (Cytochrome P450 2E1) | Ki (Cytochrome P450 2E1) | IC50 (D(3) dopamine receptor) | IC50 [4] | IC50 [5] | IC50 (Thromboxane-A synthase) | IC50 [6] | IC50 [7] | IC50 [8] | Ki [8] | IC50 [9] | IC50 (Melanocortin receptor 3)

CC(=O)[C@@]1(O)CC[C@H]2[C@@H]3C[C@H](C)C4=CC(=O)C=C[C@]4(C)[C@@]3(F)[C@@H](O)C[C@@]21C [FLUOROMETHOLONE]
Not Active: IC50 [1] | IC50 [2] | IC50 [3] | IC50 (Cytochrome P450 2E1) | Ki (Cytochrome P450 2E1) | IC50 (D(3) dopamine receptor) | IC50 [4] | IC50 [5] | IC50 (Thromboxane-A synthase) | IC50 [6] | IC50 [7] | IC50 [8] | Ki [8] | IC50 [9] | IC50 (Melanocortin receptor 3)

O=c1[nH]cc(F)c(=O)[nH]1 [FLUOROURACIL]
Not Active: IC50 [1] | IC50 [2] | IC50 [3] | IC50 (Cytochrome P450 2E1) | Ki (Cytochrome P450 2E1) | IC50 (D(3) dopamine receptor) | IC50 [4] | IC50 [5] | IC50 (Thromboxane-A synthase) | IC50 [6] | IC50 [7] | IC50 [8] | Ki [8] | IC50 [9] | IC50 (Melanocortin receptor 3)

CC(C)n1c(/C=C/C(O)CC(O)CC(=O)O)c(-c2ccc(F)cc2)c2ccccc21 (stereo not given) [FLUVASTATIN]
Not Active: IC50 [1] | IC50 [2] | IC50 [3] | IC50 (Cytochrome P450 2E1) | Ki (Cytochrome P450 2E1) | IC50 (D(3) dopamine receptor) | IC50 [4] | IC50 [5] | IC50 (Thromboxane-A synthase) | IC50 [6] | IC50 [7] | IC50 [8] | Ki [8] | IC50 [9] | IC50 (Melanocortin receptor 3)

NCC1(CC(=O)O)CCCCC1 [GABAPENTIN]
Not Active: IC50 [1] | IC50 [2] | IC50 [3] | IC50 (Cytochrome P450 2E1) | Ki (Cytochrome P450 2E1) | IC50 (D(3) dopamine receptor) | IC50 [4] | IC50 [5] | IC50 (Thromboxane-A synthase) | IC50 [6] | IC50 [7] | IC50 [8] | Ki [8] | IC50 [9] | IC50 (Melanocortin receptor 3)

CC[N+](CC)(CC)CCOc1cccc(OCC[N+](CC)(CC)CC)c1OCC[N+](CC)(CC)CC.[I-].[I-].[I-] [GALLAMINE TRIETHIODIDE]
Not Active: IC50 [1] | IC50 [2] | IC50 [3] | IC50 (Cytochrome P450 2E1) | Ki (Cytochrome P450 2E1) | IC50 (D(3) dopamine receptor) | IC50 [4] | IC50 [5] | IC50 (Thromboxane-A synthase) | IC50 [6] | IC50 [7] | IC50 [8] | Ki [8] | IC50 [9] | IC50 (Melanocortin receptor 3)

Nc1nc2c(ncn2COC(CO)CO)c(=O)[nH]1 [GANCICLOVIR]
Not Active: IC50 [1] | IC50 [2] | IC50 [3] | IC50 (Cytochrome P450 2E1) | Ki (Cytochrome P450 2E1) | IC50 (D(3) dopamine receptor) | IC50 [4] | IC50 [5] | IC50 (Thromboxane-A synthase) | IC50 [6] | IC50 [7] | IC50 [8] | Ki [8] | IC50 [9] | IC50 (Melanocortin receptor 3)

COc1c(N2CCNC(C)C2)c(F)cc2c(=O)c(C(=O)O)cn(C3CC3)c12 (stereo not given) [GATIFLOXACIN]
Not Active: IC50 [1] | IC50 [2] | IC50 [3] | IC50 (Cytochrome P450 2E1) | Ki (Cytochrome P450 2E1) | IC50 (D(3) dopamine receptor) | IC50 [4] | IC50 [5] | IC50 (Thromboxane-A synthase) | IC50 [6] | IC50 [7] | IC50 [8] | Ki [8] | IC50 [9] | IC50 (Melanocortin receptor 3)
